Measurements taken from patent US10899754B2, “Modulators of indoleamine 2,3-dioxygenase” (GLAXOSMITHKLINE INTELLECTUAL PROPERTY DEVELOPMENT LIMITED, priority 2016, dated 2021).

How the values were obtained:
[1] = molecular target: indoleamine 2, 3-dioxygenase (IDO1) (Homo sapiens, UniProt P14902); test: IDO1 PBMC RapidFire MS assay (kynurenine detection by mass spectrometry); type: cell-based; parameters: to induce the expression of indoleamine 2, 3-dioxygenase (IDO1); host or cells: human PBMC stimulated with IFN-gamma and LPS; details: human PBMC stimulated with IFN-γ and LPS, 2 days, pIC50, read-out: PBMC PXC50 (converted)
indoleamine 2, 3-dioxygenase (IDO1), sequence (P14902 whole entry): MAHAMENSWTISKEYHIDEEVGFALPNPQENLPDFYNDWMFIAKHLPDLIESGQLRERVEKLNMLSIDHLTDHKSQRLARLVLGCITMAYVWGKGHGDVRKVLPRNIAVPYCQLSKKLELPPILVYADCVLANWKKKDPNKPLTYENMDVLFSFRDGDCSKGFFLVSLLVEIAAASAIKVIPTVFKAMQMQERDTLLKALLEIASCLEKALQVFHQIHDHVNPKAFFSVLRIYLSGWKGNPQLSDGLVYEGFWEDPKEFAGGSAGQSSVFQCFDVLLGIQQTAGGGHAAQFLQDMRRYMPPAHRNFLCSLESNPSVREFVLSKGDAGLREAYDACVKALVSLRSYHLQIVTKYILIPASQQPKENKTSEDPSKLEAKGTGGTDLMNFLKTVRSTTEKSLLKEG
Experimental: IDO1 PBMC RapidFire MS Assay
(§1) Compounds of the present invention were tested via high-throughput cellular assays utilizing detection of kynurenine via mass spectrometry and cytotoxicity as end-points. For the mass spectrometry and cytotoxicity assays, human peripheral blood mononuclear cells (PBMC) (PB003F; AllCells®, Alameda, Calif.) were stimulated with human interferon-γ (IFN-γ) (Sigma-Aldrich Corporation, St. Louis, Mo.) and lipopolysaccharide from Salmonella minnesota (LPS) (Invivogen, San Diego, Calif.) to induce the expression of indoleamine 2, 3-dioxygenase (IDO1). Compounds with IDO1 inhibitory properties decreased the amount of kynurenine produced by the cells via the tryptophan catabolic pathway. Cellular toxicity due to the effect of compound treatment was measured using CellTiter-Glo® reagent (CTG) (Promega Corporation, Madison, Wis.), which is based on luminescent detection of ATP, an indicator of metabolically active cells.
(§2) In preparation for the assays, test compounds were serially diluted 3-fold in DMSO from a typical top concentration of 1 mM or 5 mM and plated at 0.5 μL in 384-well, polystyrene, clear bottom, tissue culture treated plates with lids (Greiner Bio-One, Kremsmünster, Austria) to generate 11-point dose response curves. Low control wells (0% kynurenine or 100% cytotoxicity) contained either 0.5 μL of DMSO in the presence of unstimulated (−IFN-γ/−LPS) PBMCs for the mass spectrometry assay or 0.5 μL of DMSO in the absence of cells for the cytotoxicity assay, and high control wells (100% kynurenine or 0% cytotoxicity) contained 0.5 μL of DMSO in the presence of stimulated (+IFN-γ/+LPS) PBMCs for both the mass spectrometry and cytotoxicity assays.
(§3) Frozen stocks of PBMCs were washed and recovered in RPMI 1640 medium (Thermo Fisher Scientific, Inc., Waltham, Mass.) supplemented with 10% v/v heat-inactivated fetal bovine serum (FBS) (Thermo Fisher Scientific, Inc., Waltham, Mass.), and 1× penicillin-streptomycin antibiotic solution (Thermo Fisher Scientific, Inc., Waltham, Mass.). The cells were diluted to 1,000,000 cells/mL in the supplemented RPMI 1640 medium. 50 μL of either the cell suspension, for the mass spectrometry assay, or medium alone, for the cytotoxicity assay, were added to the low control wells, on the previously prepared 384-well compound plates, resulting in 50,000 cells/well or 0 cells/well respectively. IFN-γ and LPS were added to the remaining cell suspension at final concentrations of 100 ng/ml and 50 ng/ml respectively, and 50 μL of the stimulated cells were added to all remaining wells on the 384-well compound plates. The plates, with lids, were then placed in a 37° C., 5% CO2 humidified incubator for 2 days.
(§4) Following incubation, the 384-well plates were removed from the incubator and allowed to equilibrate to room temperature for 30 minutes. For the cytotoxicity assay, CellTiter-Glo® was prepared according to the manufacturer's instructions, and 40 μL were added to each plate well. After a twenty minute incubation at room temperature, luminescence was read on an EnVision® Multilabel Reader (PerkinElmer Inc., Waltham, Mass.). For the mass spectrometry assay, 10 μL of supernatant from each well of the compound-treated plates were added to 40 μL of acetonitrile, containing 10 μM of an internal standard for normalization, in 384-well, polypropylene, V-bottom plates (Greiner Bio-One, Kremsmünster, Austria) to extract the organic analytes. Following centrifugation at 2000 rpm for 10 minutes, 10 μL from each well of the acetonitrile extraction plates were added to 90 μL of sterile, distilled H2O in 384-well, polypropylene, V-bottom plates for analysis of kynurenine and the internal standard on the RapidFire 300 (Agilent Technologies, Santa Clara, Calif.) and 4000 QTRAP MS (SCIEX, Framingham, Mass.). MS data were integrated using Agilent Technologies' RapidFire Integrator software, and data were normalized for analysis as a ratio of kynurenine to the internal standard. […]

[2] = test system: human peripheral blood mononuclear cells (PBMC); test: PBMC cytotoxicity assay (CellTiter-Glo); type: cell-based; details: 2 days, pCC50
Experimental: as §1, §2, §3, §4

| SMILES | IC50 [1] [nM] | PBMC TOX PXC50 [2] |
| --- | --- | --- |
| COC(=O)c1c[nH]c(Nc2cc([C@H](C)CC(=O)O)ccc2N(CC(C)C)[C@H]2CC[C@@H](OC)CC2)n1 [Example 46, (R)-3-(4-(isobutyl((1s,4s)-4-methoxycyclohexyl)amino)-3-((4-(methoxycarbonyl)-1H-imidazol-2-yl)amino)phenyl)butanoic Acid] | 1.58 | 5.2 |
| CC(C)CN(c1ccc([C@H](C)CC(=O)O)cc1Nc1cnc(Cl)nc1)C1CCOCC1 [Example 10, (R)-3-(3-((2-chloropyrimidin-5-yl)amino)-4-(isobutyl(tetrahydro-2H-pyran-4-yl)amino)phenyl)butanoic Acid] | 0.794 | <5 |
| CC(C)CN(c1ccc([C@H](C)CC(=O)O)cc1Nc1ccc(C(N)=O)cn1)C1CCOCC1 [example 240, (3R)-3-{3-[(5-carbamoylpyridin-2-yl)amino]-4-[(2-methylpropyl)(oxan-4-yl)amino]phenyl}butanoic acid] | 2510 | <5 |
| COCCC(=O)N1CCC(N(CC(C)C)c2ccc([C@H](C)CC(=O)O)cc2Nc2nc(C(F)(F)F)ns2)CC1 [Example 68, (R)-3-(4-(isobutyl(1-(3-methoxypropanoyl)piperidin-4-yl)amino)-3-((3-(trifluoromethyl)-1,2,4-thiadiazol-5-yl)amino)phenyl)butanoic Acid] | 2 | <5 |
| CO[C@H]1CC[C@@H](N(CC(C)C)c2ccc([C@H](C)CC(=O)O)cc2Nc2n[nH]c(C3CC3)n2)CC1 [Example 63, (R)-3-(3-((5-cyclopropyl-1H-1,2,4-triazol-3-yl)amino)-4-(isobutyl((cis)-4-methoxycyclohexyl)amino)phenyl)butanoic Acid] | 6.31 | <5 |
| CC(C)CN(c1ccc([C@H](C)CC(=O)O)cc1Nc1n[nH]c(C#N)n1)C1CCCCC1 [Example 83, (R)-3-(3-((5-cyano-1H-1,2,4-triazol-3-yl)amino)-4-(cyclohexyl(isobutyl)amino)phenyl)butanoic Acid] | 7.94 | <5 |
| CC(C)CN(c1ccc([C@H](C)CC(=O)O)cc1Nc1nc(C(=O)NC2CC2)c[nH]1)C1CCOCC1 [example 236, (3R)-3-(3-{[4-(cyclopropylcarbamoyl)-1H-imidazol-2-yl]amino}-4-[(2-methylpropyl)(oxan-4-yl)amino]phenyl)butanoic acid] | > 10000 | <5 |
| CO[C@H]1CC[C@H](N(CC(C)C)c2ccc([C@H](C)CC(=O)O)cc2Nc2ccc(C#N)cn2)CC1 [Example 56, (R)-3-(3-((5-cyanopyridin-2-yl)amino)-4-(isobutyl((1r,4R)-4-methoxycyclohexyl)amino)phenyl)butanoic Acid] | 3.98 | <5 |
| CNC(=O)c1n[nH]c(Nc2cc([C@H](C)CC(=O)O)ccc2N(CC(C)C)C2CCOCC2)n1 [example 237, (3R)-3-(3-{[3-(methylcarbamoyl)-1H-1,2,4-triazol-5-yl]amino}-4-[(2-methylpropyl)(oxan-4-yl)amino]phenyl)butanoic acid] | 200 | <5 |
| CC(C)CN(CC(C)C)c1ccc(C(C)CC(=O)O)cc1Nc1nnn(C)n1 (stereo not drawn) [example 251, 3-{4-[bis(2-methylpropyl)amino]-3-[(2-methyl-2H-1,2,3,4-tetrazol-5-yl)amino]phenyl}butanoic acid] | 2000 | <5 |
| CC(C)CN(c1ccc(C(C)CC(=O)O)cc1Nc1nnc(C(=O)NC2CC2)s1)C1CCCCC1 (stereo not drawn) [example 238, 3-{4-[cyclohexyl(2-methylpropyl)amino]-3-{[5-(cyclopropylcarbamoyl)-1,3,4-thiadiazol-2-yl]amino}phenyl}butanoic acid] | 20 | <5 |
| COC(=O)N1CCC(N(CC(C)C)c2ccc([C@H](C)CC(=O)O)cc2Nc2nc(C(F)(F)F)ns2)CC1 [Example 66] | 1.58 | 5.2 |
| CO[C@H](C)CN(CC(C)C)c1ccc([C@H](C)CC(=O)O)cc1Nc1nc(C(F)(F)F)ns1 [Example 96, (R)-3-(4-(isobutyl((R)-2-methoxypropyl)amino)-3-((3-(trifluoromethyl)-1,2,4-thiadiazol-5-yl)amino)phenyl)butanoic Acid] | 10 | <5 |
| CC(C)CN(c1ccc([C@H](C)Cc2nnn[nH]2)cc1Nc1nc(C(F)(F)F)ns1)C1CCOCC1 [Example 99, (R)-4-(1-(1H-tetrazol-5-yl)propan-2-yl)-N^1-isobutyl-N^1-(tetrahydro-2H-pyran-4-yl)-N^2-(3-(trifluoromethyl)-1,2,4-thiadiazol-5-yl)benzene-1,2-diamine] | 1.26 | <5 |
| CC(C)CN(CC(C)C)c1ccc([C@H](C)CC(=O)O)cc1Nc1nc(C(F)(F)F)cn1COCC[Si](C)(C)C [example 220, (3R)-3-{4-[bis(2-methylpropyl)amino]-3-{[4-(trifluoromethyl)-1-{[2-(trimethylsilyl)ethoxy]methyl}-1H-imidazol-2-yl]amino}phenyl}butanoic acid] | 398 | <5 |
| CC(C)CN(c1ccc([C@H](C)CC(=O)O)cc1Nc1nc(C(F)(F)F)ns1)C1CCN(C(=O)C2CC2)CC1 [Example 64, (R)-3-(4-((1-(cyclopropanecarbonyl)piperidin-4-yl) (isobutyl)amino)-3-((3-(trifluoromethyl)-1,2,4-thiadiazol-5-yl)amino)phenyl)butanoic Acid] | 1 | <5 |
| CC(C)CN(CCCCCNC(=O)c1ccc(C2(C(F)(F)F)N=N2)cc1)c1ccc([C@H](C)CC(=O)O)cc1Nc1nc(C(F)(F)F)ns1 [example 255, (3R)-3-{4-[(2-methylpropyl)[5-({4-[3-(trifluoromethyl)-3H-diazirin-3-yl]phenyl}formamido)pentyl]amino]-3-{[3-(trifluoromethyl)-1,2,4-thiadiazol-5-yl]amino}phenyl}butanoic acid] | 20 | <4.3 |
| CC(C)CN(c1ccc([C@H](C)CC(=O)O)cc1Nc1ccc(Cl)cn1)C1CCOCC1 [Example 8, (R)-3-(3-((5-chloropyridin-2-yl)amino)-4-(isobutyl(tetrahydro-2H-pyran-4-yl)amino)phenyl)butanoic Acid] | 0.794 | <5 |
| CC(C)CN(c1ccc([C@H](C)CC(=O)O)cc1Nc1nc(C(F)(F)F)c[nH]1)C1CCOCC1 [Example 114, (R)-3-(4-(isobutyl(tetrahydro-2H-pyran-4-yl)amino)-3-((4-(trifluoromethyl)-1H-imidazol-2-yl)amino)phenyl)butanoic Acid] | 15.8 | <5 |
| CC(C)CN(c1ccc([C@H](C)CC(=O)O)cc1Nc1nnc(C(N)=O)s1)C1CCOCC1 [example 261, (3R)-3-{3-[(5-carbamoyl-1,3,4-thiadiazol-2-yl)amino]-4-[(2-methylpropyl)(oxan-4-yl)amino]phenyl}butanoic acid] | 31.6 | <5 |
| CC(C)CN(CC(C)C)c1ccc([C@H](C)CC(=O)O)cc1Nc1n[nH]c(C(F)(F)F)n1 [Example 86, (R)-3-(4-(diisobutylamino)-3-((5-(trifluoromethyI)-1H-1,2,4-triazol-3-yl)amino)phenyl)butanoic Acid] | 3.98 | <5 |
